Results as given in publication PMC5841658, “Anti-cancer characteristics and ototoxicity of platinum(II) amine complexes with only one leaving ligand” (PLoS ONE, 2018).
“And” between values parts separate entries of the source, which are not always exact repeats. Identical values can stand only once.

Key:
[1] = system: A549 lung cancer cell line; assay: MTT cellular viability assay, A549; type: cell-based; conditions: 72 hours, ± standard deviation
Procedure: (§1) Cell lines were obtained from American Type Culture Collection (ATCC, Manassas, VA). […] Caco-2 (ATCC: HTB-37) colorectal cancer was grown in EMEM with 20% FBS and 1% penicillin/streptomycin. All cell lines were incubated at 37°C in 5% CO2 with passaging every 4–7 days. Cell culture media and supplements were obtained from ATCC, Atlanta Biologicals (Flowery Branch, GA), Mediatech (Tewksbury, MA), Fisher Scientific (Waltham, MA), Gibco (Gaithersburg, MD) and Sigma-Aldrich.
(§2) The MTT (3-(4,5-dimethylthiazol-2-yl)-2,5-diphenyltetrazolium bromide) cellular viability assay was performed in all three cancer cell lines and the non-cancer cell line. Following a protocol adapted from, cells were seeded at 5,000 cells per well in 96-well plates and incubated at 37°C in 5% CO2 in F-12K Medium or EMEM with FBS supplementation and 1% penicillin/streptomycin for 24 hours. Then, wells were treated in replicates of six according to a concentration series (500, 50, 5, 0.5, 0.05 μM) of specific platinum complexes for 72 hours. A negative control (media only), positive control (Triton X-100) and series of blanks were simultaneously performed. The MTT assay was run for 2 hours, then well contents were rapidly evacuated out and all wells were treated with MTT solubilization solution [10% Triton X-100 in acidic (0.1N HCl) isopropanol] for 15 minutes before the plates were read using a BioTek Synergy HT microplate plate reader (570 nm and 690 nm absorbance wavelengths). Reagents, cell culture media and supplements were obtained from ATCC, Atlanta Biologicals, Mediatech, Fisher Scientific, Gibco and Sigma-Aldrich.
(§3) GraphPad Prism v6 (La Jolla, CA) was used for all statistical analysis. Nuclear fraction platinum uptake as a total percent of combined nuclear and cytosolic uptake was analyzed using a one-way ANOVA (Brown-Forsyth test; p ≤ 0.05). IC50 values were calculated in Prism using the sigmoidal, 4PL, x is log(concentration) analysis feature or were calculated from Prism derived values using the equation y = mx + b. MTT assay standard deviation values were calculated using ED50plus v1.0 online software. AEP threshold data were analyzed by two-way ANOVA (Dunnett’s multiple comparisons test; p ≤ 0.05) and hair cell quantification data by two-way ANOVA (Tukey’s multiple comparisons test; p ≤ 0.05). AEP temporary threshold shifts (TTS) were calculated by subtracting the mean vehicle threshold for each frequency from each treatment threshold. TTS data were averaged across frequencies for each treatment and were analyzed by one-way ANOVA (Tukey’s multiple comparisons test; p ≤ 0.05).

[2] = system: U-138 MG (HTB-16) glioblastoma cancer cell line; assay: MTT cellular viability assay, HTB16; type: cell-based; conditions: HTB16 (glioma), 72 hours, ± standard deviation
Procedure: as §1, §2, §3

[3] = system: IMR-90 lung fibroblast control cell line; assay: MTT cellular viability assay, IMR90; type: cell-based; conditions: IMR90 (fibroblast, non-cancer), 72 hours, ± standard deviation
Procedure: as §1, §2, §3

[4] = system: zebrafish hearing thresholds; assay: Auditory evoked potential (AEP) testing in zebrafish inner ear model; type: in vivo, Danio rerio; conditions: 25 mg/kg i.p.; for AEP hearing threshold, significance of pairwise comparison against vehicle / AEP hearing threshold, significance of pairwise comparison against cisplatin: 48 h; for mean (± S.E.) temporary threshold shift (TTS), averaged across frequencies: 48 hours, vehicle threshold subtracted
Procedure: (§4) Zebrafish (Danio rerio) were purchased from a commercial supplier (Segrest Farms, Gibsonton, FL) and maintained in the animal facility of Western Kentucky University according to a protocol approved by the Institutional Animal Care and Use Committee. All zebrafish used in this study were a mix of male and female adult animals at least 6 months of age and were maintained according to standard methods.
(§5) After injection, fish were returned to holding tanks for either 24 or 48 hours and then subjected to hearing tests followed by hair cell quantification analysis.
Auditory evoked potential (AEP) testing was performed on individual fish according to standard protocols. […] After harness placement was complete, three 27 gauge stainless steel electrodes (Rochester Electro-Medical, Inc., Lutz, FL) were inserted approximately 2 mm subdermally to record AEPs. A reference electrode was inserted into the medial dorsal surface of the head, a recording electrode directly over the brainstem and a ground electrode in the tail musculature. Sound stimuli (tone pips) were presented to each fish at 8 frequencies (100, 250, 400, 600, 800, 1000, 1500 and 3000 Hz) and AEP waveforms were collected using a TDT System III physiology apparatus (Tucker-Davis Technologies Inc., Alachua, FL) running SigGen and BioSig software. Auditory stimuli were passed through a P1000 power amplifier (Hafler, Port Coquitlam, BC) and presented with a University Sound UW-30 underwater speaker (Electro-Voice, Fairport, NY). Sound pressure levels were confirmed using a Type 10CT hydrophone (G.R.A.S., Holte, Denmark) placed adjacent to the mesh harness. Auditory thresholds were determined in 5 dB increments by visual inspection of AEP waveforms.
as §3

[5] = system: zebrafish saccule hair cells; assay: Hair cell quantification, saccule; type: in vivo, Danio rerio; conditions: 25 mg/kg i.p., 48 hours; for effect on hair cell density in four regions of the saccule compared to vehicle: 5, 25, 50, 75% regions
Procedure: as §4, §5
Hair cell counts were performed from specific regions of the zebrafish saccule and utricle using established procedures. […] Prior to dissection, heads were rinsed three times for 10 minutes each at room temperature in phosphate buffer (pH 7.4, LabChem, Pittsburgh, PA) and the inner ear epithelia (saccule and utricle) were then carefully dissected out and trimmed. […] Tissue samples were then placed on glass slides and nuclei were labelled with Prolong Gold antifade reagent (4’,6-diamidino-2-phenylindole [DAPI], Life Technologies, Carlsbad, CA) and a cover-slip was placed over the samples for microscopy.
Saccule and utricle samples were viewed through the FITC filter of a Zeiss Axioplan2 epifluorescence microscope (Carl Zeiss, Jena, Germany) at 20X magnification and were then photographed using an AxioCam MRm camera. Cell counts were made from four regions of the saccule (5%, 25%, 50%, 75%) along the rostral-caudal length of the organ by placing a 50 μm x 50 μm box at each location and using the microscope cell counter feature. In the utricular samples, cell counts were made from three equidistant 50 μm x 50 μm boxes in both the extrastriolar and striolar regions.
as §3

5'-GMP = assay: Kinetic 5'-GMP assay (1H NMR, rate of reaction of platinum complex with 5'-GMP); type: biochemical; conditions: D2O, pH 7, 25°C; for Rate constant for the reaction of 5'-GMP with the platinum(II) complex: excess platinum, fitted first order in each reactant
Procedure: The reaction of each platinum compound with 5'-GMP (Acros) was monitored using ^1H NMR spectroscopy to observe the disappearance of the H8 signal of the unreacted 5'-GMP at ≈8 ppm and the appearance of a product signal ≈0.5–1.0 ppm downfield of the unreacted 5'-GMP. The reaction was conducted with excess platinum compound present in each case. A 10 mM solution of 5'-GMP and a 10–20 mM solution of the platinum(II) compound were prepared separately in D2O. The pH (uncorrected for the effects of deuterium) of each solution was adjusted to 7, and the samples were equilibrated to 25°C in a water bath. Aliquots of the two solutions were combined and placed in an NMR tube; typically, the final concentrations of platinum was 5–18 mM and the concentration of 5'-GMP was 1 mM (except for the [Pt(dien)Cl]^+ reaction, where it was 0.5 mM). Samples were maintained at 25°C throughout the NMR experiment. The H8 resonances were integrated and the data was fitted to an equation that was first order in each reactant using DynaFit to determine rate constants. At least two runs were conducted for each platinum compound using fresh samples.

[6] = system: Caco-2 colorectal cancer cell line; assay: MTT cellular viability assay, Caco2; type: cell-based; conditions: 72 hours, ± standard deviation
Procedure: as §1, §2, §3

| SMILES | IC50 [1] | IC50 [2] | IC50 [3] | AEP hearing threshold, significance of pairwise comparison against vehicle ([4]; 100 Hz) | AEP hearing threshold, significance of pairwise comparison against vehicle ([4]; 250 Hz) | AEP hearing threshold, significance of pairwise comparison against vehicle ([4]; 400 Hz) | AEP hearing threshold, significance of pairwise comparison against vehicle ([4]; 600 Hz) | AEP hearing threshold, significance of pairwise comparison against vehicle ([4]; 800 Hz) | AEP hearing threshold, significance of pairwise comparison against vehicle ([4]; 1000 Hz) | AEP hearing threshold, significance of pairwise comparison against vehicle ([4]; 1500 Hz) | AEP hearing threshold, significance of pairwise comparison against vehicle ([4]; 3000 Hz) | effect on hair cell density in four regions of the saccule compared to vehicle [5] | Relative rate (rate constant divided by the rate constant for [Pt(dien)Cl]^+) (5'-GMP) | Rate constant for the reaction of 5'-GMP with the platinum(II) complex (5'-GMP) | IC50 [6] | mean (± S.E.) temporary threshold shift (TTS), averaged across frequencies [4] | AEP hearing threshold, significance of pairwise comparison against cisplatin ([4]; 100 Hz) | AEP hearing threshold, significance of pairwise comparison against cisplatin ([4]; 250 Hz) | AEP hearing threshold, significance of pairwise comparison against cisplatin ([4]; 400 Hz) | AEP hearing threshold, significance of pairwise comparison against cisplatin ([4]; 600 Hz) | other results |
| --- | --- | --- | --- | --- | --- | --- | --- | --- | --- | --- | --- | --- | --- | --- | --- | --- | --- | --- | --- | --- | --- |
| N.N.[Cl][Pt][Cl] [Cisplatin, cisplatin] | 9.79 ± 0.63 µM | 3.11 ± 0.06 µM | 0.53 ± 0.94 µM | ns (ns, p > 0.05) | ns (ns, p > 0.05) | **** (**** p ≤ 0.0001) | *** (*** p ≤ 0.001) | *** (*** p ≤ 0.001) | **** (**** p ≤ 0.0001) | **** (**** p ≤ 0.0001) | ns (ns, p > 0.05) | hair cell density reduction in the 5, 25 and 50% regions |  |  |  |  |  |  |  |  | saccule hair cell density, % of control ([5]; 5% location along rostral-caudal axis): 69.5 % of control; saccule hair cell density, % of control ([5]; 25% location along rostral-caudal axis): 41.4 % of control; saccule hair cell density, % of control ([5]; 50% location along rostral-caudal axis): 47.7 % of control |
| [NH3+][Pt-2]([NH3+])([Cl])[n+]1ccccc1 (stereo not shown) [Pyriplatin, pyriplatin] | 89.28 ± 0.46 µM | 66.3 ± 0.74 µM | 16.1 ± 1.13 µM | * (* p ≤ 0.05) | ns (ns, p > 0.05) | ns (ns, p > 0.05) | ns (ns, p > 0.05) | ns (ns, p > 0.05) | ns (ns, p > 0.05) | ns (ns, p > 0.05) | ns (ns, p > 0.05) | no hair cell reduction | 0.073 | 2.9 (+/- 0.7) x 10^−2 M^-1s^-1 | 20.9 ± 0.69 µM | 6 dB and 6.2 ± 2.1 dB | ns (ns, p > 0.05) | ns (ns, p > 0.05) | ns (ns, p > 0.05) | ns (ns, p > 0.05) | Rate constant for the reaction of 5'-GMP with the platinum(II) complex (5'-GMP; listed as pyriplatin): 2.9 ± 0.7 x 10^−2 M^-1s^-1; AEP hearing threshold, significance of pairwise comparison against cisplatin ([4]; 800 Hz): ns (ns, p > 0.05); AEP hearing threshold, significance of pairwise comparison against cisplatin ([4]; 1000 Hz): ns (ns, p > 0.05); AEP hearing threshold, significance of pairwise comparison against cisplatin ([4]; 1500 Hz): * (* p ≤ 0.05); AEP hearing threshold, significance of pairwise comparison against cisplatin ([4]; 3000 Hz): ns (ns, p > 0.05) |
| CC[N+]1(CC)CC[NH+]2CC[NH2+][Pt-2]21[Cl] (stereo not shown) [[Pt(Et2dien)Cl]^+, Pt(N,N-diethyldiethylenetriamine)Cl] |  |  |  | *** (*** p ≤ 0.001) | ns (ns, p > 0.05) | **** (**** p ≤ 0.0001) | **** (**** p ≤ 0.0001) | **** (**** p ≤ 0.0001) | **** (**** p ≤ 0.0001) | ns (ns, p > 0.05) | ** (** p ≤ 0.01) | no significant reduction in hair cell bundles | 0.00012 | 4.64 ± 0.08 x 10^−5 M^-1s^-1 and 4.64 (+/- 0.08) x 10^−5 M^-1s^-1 |  | 11.1 ± 2.5 dB | ns (ns, p > 0.05) | ns (ns, p > 0.05) | ns (ns, p > 0.05) | ns (ns, p > 0.05) | AEP hearing threshold, significance of pairwise comparison against cisplatin ([4]; 800 Hz): * (* p ≤ 0.05); AEP hearing threshold, significance of pairwise comparison against cisplatin ([4]; 1000 Hz): ns (ns, p > 0.05); AEP hearing threshold, significance of pairwise comparison against cisplatin ([4]; 1500 Hz): ns (ns, p > 0.05); AEP hearing threshold, significance of pairwise comparison against cisplatin ([4]; 3000 Hz): ns (ns, p > 0.05) |
| CC[N+]1(CC)CC[NH+]2CC[NH][Pt-2]21[Cl] (stereo not shown) [[Pt(Et2dien)Cl]^+, Pt(N,N-diethyldiethylenetriamine)Cl] | 67.3 ± 0.36 µM | 48 ± 11.8 µM | 7.13 ± 0.98 µM |  |  |  |  |  |  |  |  |  |  |  | 72.5 ± 3.37 µM |  |  |  |  |  |  |
